Reference: PMC9967275, “Screening the Pathogen Box to Discover and Characterize New Cruzain and TbrCatL Inhibitors” (Pathogens, 2023)
Where two headings read alike, the source gives them in different places.

Tests used:
cruzain = cruzain (Trypanosoma cruzi, UniProt P25779); assay: biochemical; conditions: for Cruzain 0’ Inhibition: 0’ (pre-incubation time); for Cruzain 10’ Inhibition: 10’ (pre-incubation time); for Cruzain Inhibition 0’: 0’ (no pre-incubation); for Cruzain Inhibition 0’ / Cruzain Inhibition 10’: sheet Screening results; for Cruzain Inhibition 10’: 10’ (pre-incubation);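 as to Cruzain 0’ Inhibition: at 5 µM compound concentration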;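 as to Cruzain 10’ Inhibition: at 5 µM compound concentration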;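 as to Cruzain Inhibition 0’: at 5 µM compound concentration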;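 as to Cruzain Inhibition 10’: at 5 µM compound concentration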
Sequence of cruzain (P25779 123-337 limits assumed): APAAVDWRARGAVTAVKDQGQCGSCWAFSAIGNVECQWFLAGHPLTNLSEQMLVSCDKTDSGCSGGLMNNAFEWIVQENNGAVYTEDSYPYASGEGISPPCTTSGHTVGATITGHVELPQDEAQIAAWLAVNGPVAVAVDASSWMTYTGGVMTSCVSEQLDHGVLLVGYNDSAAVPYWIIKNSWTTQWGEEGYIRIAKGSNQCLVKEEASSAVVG
Method in brief: (§1)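 Recombinant enzymes assayed by Z-Phe-Arg-AMC cleavage at 25 °C, fluorescence 340/440 nm over 5–7 min, with 10 min or no enzyme–compound preincubation.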

TbrCatL = biological target: T1, TbrCatL (Trypanosoma brucei rhodesiense, UniProt Q95PM0); assay: TbrCatL enzymatic inhibition assay (cleavage of fluorogenic substrate Z-FR-AMC); assay type: biochemical; conditions: for TbrCatL 0’ Inhibition: 0’ (pre-incubation time); for TbrCatL 0’ Inhibition / TbrCatL 10’ Inhibition: sheet "Screening results"; for TbrCatL 10’ Inhibition: 10’ (pre-incubation time); for TbrCatL Inhibition 0’: 0’ (no pre-incubation); for TbrCatL Inhibition 0’ / TbrCatL Inhibition 10’: sheet Screening results; for TbrCatL Inhibition 10’: 10’ (pre-incubation);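 as to TbrCatL 0’ Inhibition: at 5 µM compound concentration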;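 as to TbrCatL 10’ Inhibition: at 5 µM compound concentration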;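 as to TbrCatL Inhibition 0’: at 5 µM compound concentration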;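 as to TbrCatL Inhibition 10’: at 5 µM compound concentration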
T1 construct: Conor Caffrey (University of California San Diego)
T1 sequence (Q95PM0 entry or part of it): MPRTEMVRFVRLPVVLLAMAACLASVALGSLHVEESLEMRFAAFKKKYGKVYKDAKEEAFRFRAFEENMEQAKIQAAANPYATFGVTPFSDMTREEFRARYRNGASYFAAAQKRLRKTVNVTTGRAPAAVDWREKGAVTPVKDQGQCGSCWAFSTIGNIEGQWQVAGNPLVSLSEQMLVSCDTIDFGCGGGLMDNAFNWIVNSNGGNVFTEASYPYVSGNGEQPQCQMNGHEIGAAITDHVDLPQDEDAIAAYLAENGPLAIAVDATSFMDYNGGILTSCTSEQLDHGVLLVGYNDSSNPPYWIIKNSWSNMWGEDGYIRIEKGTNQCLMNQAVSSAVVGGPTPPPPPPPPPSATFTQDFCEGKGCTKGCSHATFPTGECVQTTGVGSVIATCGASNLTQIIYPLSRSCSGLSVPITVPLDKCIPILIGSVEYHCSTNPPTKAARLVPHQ
Method in brief: as §1

| SMILES | Cruzain 0’ Inhibition (cruzain; sheet "Screening results") [%] | Cruzain 10’ Inhibition (cruzain; sheet "Screening results") [%] | TbrCatL 0’ Inhibition (TbrCatL) [%] | TbrCatL 10’ Inhibition (TbrCatL) [%] | also measured |
| --- | --- | --- | --- | --- | --- |
| CCn1cnc2c(Nc3cc(F)cc(F)c3)nc(C#N)nc21 [MMV676881, reference compound] | – | – | – | – | inhibition at 5 µM (cruzain; read-out: Cruzain 0’ Inhibition, 0’ (pre-incubation time), sheet "Screening results"): 108%; inhibition at 5 µM (cruzain; read-out: Cruzain 10’ Inhibition, 10’ (pre-incubation time), sheet "Screening results"): 108%; inhibition at 5 µM (cruzain; read-out: Inhibition at 5 µM (Mean ± SEM %) Cruzain 0′, 5 µM, no pre-incubation, initial screening): 100 ± 2%; inhibition at 5 µM (cruzain; read-out: Inhibition at 5 µM (Mean ± SEM %) Cruzain 10′ inc, 5 µM, 10′ pre-incubation, initial screening): 100 ± 1%; inhibition at 5 µM (cruzain; read-out: Inhibition of cruzain or TbrCatL (either enzyme) in the initial screening, 5 µM, either cruzain or TbrCatL, with or without pre-incubation): ≥ 60%; Inhibition at 5 µM (Mean ± SEM %) TbrCatL 10′ inc (TbrCatL; 5 µM, 10′ pre-incubation, initial screening): fully inhibited; Inhibition at 5 µM (Mean ± SEM %) TbrCatL 0′ (TbrCatL; 5 µM, no pre-incubation, initial screening): fully inhibited; inhibition at 5 µM (TbrCatL; read-out: Inhibition at 5 µM (Mean ± SEM %) TbrCatL 0′): 100%; inhibition at 5 µM (TbrCatL; read-out: Inhibition at 5 µM (Mean ± SEM %) TbrCatL 10′ inc): 100 ± 2%; inhibition at 5 µM (TbrCatL; read-out: TbrCatL 0’ Inhibition): 104%; inhibition at 5 µM (TbrCatL; read-out: TbrCatL 10’ Inhibition): 103% |
| NC(=O)c1cc(-c2ccsc2)ccc1OCCOc1ccccc1 [MMV687138] | 2.4 | 4 | 0.2 | -2.4 | – |
| CCCCS(=O)(=O)Nc1ccc2cnn(C)c2c1 [MMV687145] | – | – | – | – | Cruzain Inhibition 0’ (cruzain): -4.6%; Cruzain Inhibition 10’ (cruzain): -6%; TbrCatL Inhibition 0’ (TbrCatL): -3%; TbrCatL Inhibition 10’ (TbrCatL): -1.9% |
| Cc1cc(C)c2cc(C(=O)NC3CCCCCCC3)[nH]c2c1 [MMV687146] | 4.7 | 4.7 | -1.1 | -12 | – |
| COc1ccc(Cn2cnc3c(-c4ccco4)nc(Cl)nc32)cc1 [MMV687170] | 6 | 7 | 15 | 3.4 | – |
| O=C(C1CCN(c2cc(-n3cccc3)ncn2)CC1)N1CCc2ccccc2C1 [MMV687172] | -2.4 | -1.9 | 0.3 | 15 | – |
| CCc1ccc([C@@H]2C[C@H](C(F)(F)F)n3ncc(C(=O)NCc4ccc(OC)cc4)c3N2)cc1 [MMV687180] | -9 | -7 | -4.3 | -11 | – |
| COc1ccc2nc(C)cc(OCC(=O)Nc3ccccc3OC)c2c1 [MMV687188] | 0.8 | 4.7 | -0.5 | 3 | – |
| COc1ccc2nc(C)cc(OCC(=O)NCc3ccccc3)c2c1 [MMV687189] | 4.5 | -1.1 | 2.6 | 5 | – |
| CC(C)(C(=O)Nc1ccc(F)cc1)n1cc(-c2ccccc2F)cn1 [MMV687239] | – | – | – | – | Cruzain Inhibition 0’ (cruzain): 7%; Cruzain Inhibition 10’ (cruzain): -3%; TbrCatL Inhibition 0’ (TbrCatL): 1.1%; TbrCatL Inhibition 10’ (TbrCatL): -6% |
| NC(=O)c1cc(Br)ccc1OCCOc1ccccc1 [MMV687243] | – | – | – | – | Cruzain Inhibition 0’ (cruzain): 8%; Cruzain Inhibition 10’ (cruzain): 8%; TbrCatL Inhibition 0’ (TbrCatL): -2.4%; TbrCatL Inhibition 10’ (TbrCatL): -18% |
| Nc1nc2cc(-c3cncc(Oc4ccc(F)cc4)c3)ccc2[nH]1 [MMV687248] | 17 | 19 | -0.7 | 17 | – |
| Cn1c(=O)c2c(S(C)(=O)=O)snc2n(C)c1=O [MMV687251] | 12 | 2.8 | 2.7 | 0.4 | – |
| CCCCc1ccc(C(=O)Nc2nccc3ccccc23)nc1 [MMV687254] | -10 | -5 | -7 | -2.6 | – |
| CC(C)=CCC/C(C)=C\CNCCNC1C2CC3CC(C2)CC1C3 (centres unmarked) [MMV687273] | -1.6 | 2.8 | -3.2 | -4.3 | – |
| CCc1nc2ccc(Cl)cn2c1C(=O)NCc1ccc(N2CCC(c3ccc(OC(F)(F)F)cc3)CC2)cc1 [MMV687696] | 4.7 | 1.8 | -4.5 | -3.6 | – |
| O=C(NCc1cc(Cl)cc(Cl)c1)c1c(C(F)(F)F)nc2ccccn12 [MMV687699] | 3.3 | 7 | -1.6 | -6 | – |
| Nc1ncnc2c1ncn2[C@@H]1O[C@H](COS(=O)(=O)NC(=O)c2ccccc2O)[C@@H](O)[C@H]1O [MMV687700] | 3 | 10 | 3 | 17 | – |
| COc1cccc(-c2nc3c(N4CCCC4)cccc3n2CC2CCCN2)n1 (centres unmarked) [MMV687703] | 14 | 11 | 26 | 16 | – |
